Results published in patent publication US20120058133A1, “INHIBITION OF TRNA SYNTHETASES AND THERAPEUTIC APPLICATIONS THEREOF” (President and Fellows of Harvard College, priority 2009, published 2012).
“Also recorded” adds a separate entry of the source.

How the values were obtained:
[1] = test system: murine CD4+ CD25− T cells; assay: Th17 differentiation of activated CD4+ CD25− T cells (TGFβ plus IL-6; IL-17+ IFNγ− cells); type: cell-based, mouse; conditions: for reversal of Th17 inhibition by threonine: 6 nM borrelidin, 0.5 mM threonine
Method: (§1) Purified CD4^+ CD25^− T cells were activated in vitro as previously described (Djuretic et al., Nat. Immunol. 8:145, 2007) using 0.3 μg/ml hamster anti-mouse CD3 (clone 145-2C11) (ATCC—Manassas, Va.) and 0.5 μg/ml hamster anti-mouse CD28 (BD Pharmingen—San Jose, Calif.). Activated cell cultures were differentiated using the following combinations of cytokines and antibodies: iTreg-recombinant human TGFβ1 (3 ng/ml—R&D systems, Minneapolis, Minn.), Th17-TGFβ1 (3 ng/ml) plus recombinant mouse IL-6 (30 ng/ml—R&D systems). Th1 and Th2 differentiation was performed as previously described (Djuretic et al., Nat. Immunol. 8:145, 2007). Human IL-2 supernatant (National Cancer Institute) was used in culture at 0.01 U/ml and was added at 48 hours-post activation when T cells were split into tissue culture wells lacking CD3 and CD28 antibodies, with the exception of Th17 cultures that were maintained in the absence of exogenous IL-2. CD8^+ T cells were activated with 1 μg/ml anti-CD3 and 1 μg/ml anti-CD28 and were expanded in 0.1 U/ml IL-2 until day 6 post activation. CD43-depleted B cells were activated in vitro by culturing with 25 μg/ml LPS (Sigma—St. Louis, Mo.) for 3-4 days in the presence or absence of TGFβ. All reagents (see below) were added at the time of T cell activation and again at 48 hours post activation unless indicated otherwise. For some experiments, purified CD4^+ CD25^− T cells, CD8^+ T cells or B cells were labeled with 1 μM CFSE (Invitrogen) prior to activation in accordance with manufacturer's instructions. Human T cell activation was performed by plating purified monocytes in a 96-well flat bottom plate at a concentration of 2×10^4 cells per well in complete medium overnight. 10^5 purified human memory T cells were added to monocyte cultures in the presence of soluble anti-CD3/anti-CD28 beads (Dynabeads, Invitrogen). T cells were expanded in the presence HF or MAZ1310 for up to 6 days.
MAZ1310 (Kamberov, Ph.D. Dissertation, Harvard University, 2008) was generated by chemical derivatization of halofuginone and was used at equal concentrations as a negative control. HF and MAZ1310 were prepared as 100 mM stock solutions in DMSO and diluted to the indicated concentrations. SB-431542 (Inman et al., Mol. Pharmacol. 62:65, 2002) (Tocris bioscience—Ellisville, Mo.) was prepared as a 10 mM stock solution in DMSO and was used in culture at 10 μM. L-tryptophanol was prepared as a 20 mM stock solution in 0.1 M NaOH, pH 7.4 and was used at 0.2 mM. For amino acid starvation experiments, T cells were activated and differentiated as above in D-MEM medium without L-cysteine and L-methionine (Invitrogen—Carlsbad, Calif.), or D-MEM medium without L-leucine. Stocks containing 20 mM L-cysteine (Sigma—St. Louis, Mo.) plus 10 mM L-methionine (Sigma), or 400 mM L-leucine (Sigma) were prepared in ddH2O, pH 1.0 and were added to medium at the indicated concentrations.
(§2) For detection of intracellular cytokines in murine cells, cultured T or B cells were stimulated with 10 nM PMA (Sigma) and […] (Sigma) for 4-5 hours in the presence of 10 mM brefeldin A (Sigma). Stimulated cells were harvested, washed with PBS and fixed with PBS plus 4% paraformaldehyde at room temperature for 20 minutes. Cells were then washed with PBS, permeabilized with PBS supplemented with 1% BSA and 0.5% saponin (Sigma) at room temperature for 10 minutes before cytokine-specific antibodies were added and incubated with cells for an additional 20 minutes at room temperature.

[2] = test system: murine CD4+ CD25− T cells, CD8+ T cells, B cells; assay: T and B cell activation, proliferation, cytokine production and Th1/Th2/iTreg differentiation; type: cell-based, mouse; conditions: 3 ng/ml Borrelidin
Method: FIG. 2A, Left, is a graph showing dose response analyses performed on activated carboxyfluorescein succinimidyl ester (CFSE)-labeled CD4^+CD25^− T cells in the presence of DMSO, 40 nM MAZ1310, or increasing concentrations of halofuginone (HF) (1.25-40 nM). CFSE dilution and cell surface CD25 expression were determined 48 hours after activation. Intracellular cytokine production was determined on day 4 or 5 following restimulation with phorbol myristate acetate (PMA) and ionomycin. […] FIG. 2A, Right is a graph showing dose-response analyses of HF effects on CD8^+ T cell or B cell function. Cells were activated in the presence of DMSO, 40 nM MAZ1310, or increasing concentrations of HF (1.25-40 nM). CFSE dilution, cell surface CD25 expression, and intracellular cytokine production were determined as above 2-5 days after activation.
At approximately 10-fold higher concentrations (>20 nM), HF induced a general inhibition of T and B cell activation, proliferation, and effector function (FIG. 2A, 2B).
as §1
Cytokines secreted into media supernatant were measured using the mouse Th1/Th2 cytometric bead array (CBA—BD Pharmingen) in accordance with manufacturers instructions. Briefly, CD4+ CD25− T cells were activated in anti-CD3/anti-CD28-coated tissue culture wells (see above) and supernatants were collected at the indicated times.
as §2, with “temperature. […]” for “temperature.”

[3] = test system: GCN2 phosphorylation / AAR pathway; assay: AAR pathway activation in MEFs (GCN2, eIF2a phosphorylation, CHOP); type: cell-based, mouse
Method: FIG. 24. Activation of the AAR in cells by HF/FF occurs through inhibition of proline utilization. FIG. 24A is a gel showing HF-induction of the AAR pathway is reversed by proline. MEFs were treated with the indicated concentration of HF or FF in the presence or absence of 2 mM Proline for 2 hours (left) or treated with 1 μM borrelidin in the presence or absence of 2 mM Threonine for 2 hours (right). Cells were lysed and assessed by anti-pGCN2 or anti-GCN2 Western blot. Data are representative of three separate experiments.
FIG. 24B is a gel showing HF induction of eIF2a phosphorylation and CHOP expression is GCN2 dependent. Wild Type or GCN2−/− MEFs were treated with 50 nM HF in the presence or absence of 2 mM proline. Cells were lysed at 2 hours post-HF addition (peIF2a) or 6 hours post-HF addition (CHOP) and analyzed for phosphoprotein or total protein levels by Western blot.

[4] = test system: mouse and human fibroblasts; assay: Collagen protein production in mouse and human fibroblasts; type: cell-based; conditions: data not shown

Q: For C[C@@H]1C[C@H](C)C[C@H](C)[C@@H](O)CC(=O)O[C@H]([C@@H]2CCC[C@H]2C(=O)O)C/C=C/C=C(/C#N)[C@H](O)[C@@H](C)C1 [borrelidin], which Th17 cell differentiation ([1]; 6 nM (3 ng/mL) borrelidin) is on record?
A: Its Th17 cell differentiation is “Selectively Inhibits Th17 Differentiation; also recorded: inhibited Th17 cell differentiation”.

Q: And the “reversal of Th17 inhibition by threonine” value [1]?
A: Its value is “rescued by its cognate amino acid”.

Q: What about the “reversal of Th17 inhibition by threonine” value ([1]; listed as Borrelidin) of the same molecule?
A: The value was “reversed by the addition of threonine”.

Q: What about the “differentiation of Th1, Th2, or iTreg cells” value [2] of the same molecule?
A: The value was “without perturbing the differentiation of Th1, Th2, or iTreg cells”.

Q: What about the “reversal of GCN2 phosphorylation by cognate amino acid” value ([3]; 2 mM proline or 2 mM threonine) of the same molecule?
A: Its value is “prevented by addition of an excess of its cognate amino acid threonine”.

Q: And the “GCN2 phosphorylation in fibroblasts” value ([3]; 2 hours, borrelidin 1 μM)?
A: Its value is “stimulate GCN2 phosphorylation”.

Q: And the “production of collagen protein” value [4]?
A: The value was “inhibited by borrelidin-treatment and rescued by the addition of threonine”.
